Results as given in US20090192135A1, “Human Niemann Pick C1-Like 1 Gene (NPC1L1) Polymorphisms and Methods of Use Thereof” (SCHERING CORPORATION, priority 2005, published 2009).

Target: T1, NPC1L1 (Homo sapiens, UniProt Q9UHC9)
T1 construct: from tissue; host or cells: small intestine of hypercholesterolemic patients (in vivo, clinical trial)
T1 sequence (Q9UHC9 22-1332 isoform Q9UHC9-2 limits assumed): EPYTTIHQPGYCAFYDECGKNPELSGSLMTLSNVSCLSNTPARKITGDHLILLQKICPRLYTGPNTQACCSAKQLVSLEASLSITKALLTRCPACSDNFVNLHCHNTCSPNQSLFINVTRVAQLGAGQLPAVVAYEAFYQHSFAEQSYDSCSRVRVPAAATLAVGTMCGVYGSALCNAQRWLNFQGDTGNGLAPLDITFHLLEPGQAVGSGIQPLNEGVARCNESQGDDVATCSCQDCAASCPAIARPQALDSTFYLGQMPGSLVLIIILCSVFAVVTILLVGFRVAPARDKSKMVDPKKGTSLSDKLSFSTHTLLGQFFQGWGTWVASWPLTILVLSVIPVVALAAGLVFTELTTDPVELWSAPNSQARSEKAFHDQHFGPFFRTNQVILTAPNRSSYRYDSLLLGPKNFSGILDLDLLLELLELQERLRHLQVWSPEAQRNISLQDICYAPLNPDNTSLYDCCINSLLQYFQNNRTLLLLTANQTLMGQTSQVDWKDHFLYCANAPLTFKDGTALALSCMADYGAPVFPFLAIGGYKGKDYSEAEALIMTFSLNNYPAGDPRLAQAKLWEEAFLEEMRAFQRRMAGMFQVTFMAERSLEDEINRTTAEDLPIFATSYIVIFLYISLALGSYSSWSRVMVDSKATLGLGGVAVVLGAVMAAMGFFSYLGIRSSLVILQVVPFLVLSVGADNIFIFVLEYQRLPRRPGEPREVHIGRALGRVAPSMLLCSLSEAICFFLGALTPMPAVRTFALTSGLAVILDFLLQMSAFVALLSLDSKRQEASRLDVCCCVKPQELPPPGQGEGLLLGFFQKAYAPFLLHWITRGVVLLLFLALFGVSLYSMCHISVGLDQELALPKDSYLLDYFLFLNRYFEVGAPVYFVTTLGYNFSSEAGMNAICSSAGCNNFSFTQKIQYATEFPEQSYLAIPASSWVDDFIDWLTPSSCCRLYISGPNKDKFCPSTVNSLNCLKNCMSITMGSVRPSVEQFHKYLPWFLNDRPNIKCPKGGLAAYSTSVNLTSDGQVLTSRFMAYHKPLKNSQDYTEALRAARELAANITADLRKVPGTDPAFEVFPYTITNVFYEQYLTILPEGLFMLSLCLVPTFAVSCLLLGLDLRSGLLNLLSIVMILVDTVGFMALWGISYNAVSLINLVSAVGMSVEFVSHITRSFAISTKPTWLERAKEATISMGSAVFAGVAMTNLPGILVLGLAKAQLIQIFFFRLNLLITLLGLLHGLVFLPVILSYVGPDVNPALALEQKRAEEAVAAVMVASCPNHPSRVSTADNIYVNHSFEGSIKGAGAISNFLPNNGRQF
Experiment: EASE trial: LDL-C response to six weeks of ezetimibe 10 mg/day added to stable statin therapy, analysed by NPC1L1 genotype/haplotype
Type: in vivo
Conditions: for Least-Squares (adjusted) Mean (Stderr), percent change in LDL-C: extreme responders; for Least-Squares adjusted Mean (n/Std error), percent change from baseline LDL-C: EASE cohort N = 1195; for Least-Squares (adjusted) Mean (n,/Stderr), percent change in LDL-C: Extreme responders (<10th or >90th percentile) N = 239
Procedure: Genotyping assays were developed for a number of novel and known common variants with minor allele frequencies greater than 4% that were identified in Example 1. Genetic association analysis was performed with these SNPs in a clinical trial cohort (EASE), described below, to assess whether DNA sequence variants in NPC1L1 are associated with changes in the levels of a variety of plasma cholesterol components in hypercholesterolemia patients in response to pharmacotherapy with ezetimibe and statins as compared to patients treated with a statin and placebo.
To study whether variations in NPC1L1 were associated with response to ezetimibe added to statin therapy, a study population was derived from the Ezetimibe Add-On to Statin for Effectiveness (EASE) Trial (Pearson et al., (2005) Mayo Clinic Proceedings, In Press). The EASE trial was a community-based, randomized, double-blind, placebo controlled study to evaluate the effects of six weeks of ezetimibe, 10 mg/day, added on to a stable regimen of statin therapy, on lipid biomarkers in hypercholesterolemic patients whose LDL-C levels exceeded the National Cholesterol Education Program (NCEP) Adult Treatment Panel (ATP) m guidelines for their coronary heart disease (CHD) risk category. At enrollment, patients taking a stable dose of statin (any dose, any brand) and following a NCEP Step 1 diet or similar cholesterol-lowering diet for at least six weeks prior to entry into the study were randomized to either the ezetimibe (n=2020, 2009 received the treatment) or placebo (n=1010, 1009 received the treatment) arm. From the ezetimibe group, 1208 patients provided consent for genomic analysis and were included in this study. A series of clinical measures corresponding to various cardiovascular risk factors were measured from samples obtained from all trial participants and are summarized by Pearson et al., supra.
Twenty one SNPs from Table 4 (Example 1) were converted to valid genotyping assays, thirteen of which had allele frequencies greater than 2% in all EASE sub-populations. TaqMan Allelic Discrimination assays (Livak, (1999) Genet. Anal. 14:143-49) were performed using Primer Express software and the Assay-by-Design service offered by Applied Biosystems (Foster City, Calif.). […] All probe/primer sets were designed to function using universal reaction and cycling conditions.
The twenty one selected SNPs were genotyped in 1,208 individuals participating in the ezetimibe+statin treatment arm of the EASE trial. A series of clinical measures corresponding to various cardiovascular risk factors were taken on all trial participants (Tables 4a-d). Thirteen selected SNPs genotyped in the EASE cohort were confirmed as having common allele frequencies in this cohort, i.e., an allele frequency of greater than 2% in all EASE sub-populations. […] This could reflect the increased power in the larger EASE cohort to make such detections (see Table 5).
The mean (SD) for total plasma cholesterol, HDL cholesterol (HDL-C), and LDL cholesterol (LDL-C) was 211.0 (34.9), 48.6 (11.5), and 129.1 (30.0) mg/dL, respectively (Pearson et al., supra). […] The distribution of these measurements was similar in the subjects enrolled in this genetic study (Pearson et al., supra). […] No significant associations were found between these response predictive variables and any of the tagging SNPs.
Genetic association analysis was carried out in the EASE cohort with LDL-C response to ezetimibe treatment considered as the primary outcome variable. Individual SNPs, haplotypes, and haplotype combinations were the principal explanatory variables used in the analyses. General linear models were used to estimate the effects of genotypes, haplotypes, and diplotypes on the LDL-C response phenotype. Baseline LDL-C levels, sex, age, and race were investigated to determine if they gave rise to significant effects. Baseline LDL-C levels associated with significant effects in all models and were therefore included in all analyses. […]

[1] = Caucasian ethnic subgroup, g.-18C > A C/A

O=C1[C@H](CC[C@H](O)c2ccc(F)cc2)[C@@H](c2ccc(O)cc2)N1c1ccc(F)cc1 [ezetimibe, 1-(4-fluorophenyl)-3(R)-[3-(4-fluorophenyl)-3(S)-hydroxypropyl]-4(S)-(4-hydroxyphenyl)-2-azetidinone]
Least-Squares (adjusted) Mean (Stderr), percent change in LDL-C [1]: −32.81 (3.83) %
Least-Squares (adjusted) Mean (Stderr), percent change in LDL-C (Caucasian ethnic subgroup, g.1679C > G C/G): −26.61 (3.58) %
Least-Squares (adjusted) Mean (Stderr), percent change in LDL-C (Caucasian ethnic subgroup, g.1679C > G G/G): −39.00 (10.81) %
Least-Squares adjusted Mean (Std error), percent change from baseline LDL-C (Caucasian ethnic subgroup, g.-18C > A A/A): −27.19 (3.49) %
Least-Squares adjusted Mean (Std error), percent change from baseline LDL-C [1]: −28.22 (0.96) %
Least-Squares adjusted Mean (Std error), percent change from baseline LDL-C (Caucasian ethnic subgroup, g.-18C > A C/C): −24.34 (0.60) %
Odds Ratio, extreme responder association with SNP (Caucasian ethnic subgroup, g.-18C > A, 95% CI 1.27 to 4.39): 2.36
Least-Squares adjusted Mean (Std error), percent change from baseline LDL-C (Caucasian ethnic subgroup, g.-133A > G A/A): −26.59 (0.73) %
Least-Squares adjusted Mean (Std error), percent change from baseline LDL-C (Caucasian ethnic subgroup, g.-133A > G A/G): −24.78 (0.77) %
Least-Squares adjusted Mean (Std error), percent change from baseline LDL-C (Caucasian ethnic subgroup, g.-133A > G G/G): −22.80 (1.72) %
Least-Squares adjusted Mean (Std error), percent change from baseline LDL-C (Caucasian ethnic subgroup, g.1679C > G (L272L) C/C): −24.66 (0.65) %
Least-Squares adjusted Mean (Std error), percent change from baseline LDL-C (Caucasian ethnic subgroup, g.1679C > G (L272L) C/G): −26.58 (0.85) %
Least-Squares adjusted Mean (Std error), percent change from baseline LDL-C (Caucasian ethnic subgroup, g.1679C > G (L272L) G/G): −28.18 (2.51) %
Least-Squares adjusted Mean (Std error), percent change from baseline LDL-C (Caucasian ethnic subgroup, g.19224G > A A/A): −31.64 (6.56) %
Least-Squares adjusted Mean (Std error), percent change from baseline LDL-C (Caucasian ethnic subgroup, g.19224G > A G/A): −24.81 (1.31) %
Least-Squares adjusted Mean (Std error), percent change from baseline LDL-C (Caucasian ethnic subgroup, g.19224G > A G/G): −25.56 (0.55) %
Least-Squares adjusted Mean (Std error), percent change from baseline LDL-C (Caucasian ethnic subgroup, g.19259T > C C/C): −24.95 (2.01) %
Least-Squares adjusted Mean (Std error), percent change from baseline LDL-C (Caucasian ethnic subgroup, g.19259T > C T/C): −25.61 (0.84) %
Least-Squares adjusted Mean (Std error), percent change from baseline LDL-C (Caucasian ethnic subgroup, g.19259T > C T/T): −25.44 (0.67) %
Least-Squares adjusted Mean (Std error), percent change from baseline LDL-C (Caucasian ethnic subgroup, g.28650A > G A/A): −24.63 (0.64) %
Least-Squares adjusted Mean (Std error), percent change from baseline LDL-C (Caucasian ethnic subgroup, g.28650A > G A/G): −26.90 (0.87) %
Least-Squares adjusted Mean (Std error), percent change from baseline LDL-C (Caucasian ethnic subgroup, g.28650A > G G/G): −26.52 (2.57) %
Least-Squares adjusted Mean (n/Std error), percent change from baseline LDL-C (g.-18C > A A/A): −27.27 (22/3.61) %
Least-Squares adjusted Mean (n/Std error), percent change from baseline LDL-C (g.-18C > A C/A): −27.85 (298/0.98) %
Least-Squares adjusted Mean (n/Std error), percent change from baseline LDL-C (g.-18C > A C/C): −24.16 (875/0.57) %
Least-Squares adjusted Mean (n/Std error), percent change from baseline LDL-C (g.-133A > G A/A): −25.92 (629/0.68) %
Least-Squares adjusted Mean (n/Std error), percent change from baseline LDL-C (g.-133A > G A/G): −24.58 (477/0.78) %
Least-Squares adjusted Mean (n/Std error), percent change from baseline LDL-C (g.-133A > G G/G): −22.56 (89/1.80) %
Least-Squares adjusted Mean (n/Std error), percent change from baseline LDL-C (g.1679C > G C/C): −24.50 (723/0.63) %
Least-Squares adjusted Mean (n/Std error), percent change from baseline LDL-C (g.1679C > G C/G): −25.77 (417/0.83) %
Least-Squares adjusted Mean (n/Std error), percent change from baseline LDL-C (g.1679C > G G/G): −28.77 (55/2.29) %
Least-Squares adjusted Mean (n/Std error), percent change from baseline LDL-C (g.19224G > A A/A): −31.64 (/6.94) %
Least-Squares adjusted Mean (n/Std error), percent change from baseline LDL-C (g.19224G > A G/A): −25.07 (/1.34) %
Least-Squares adjusted Mean (n/Std error), percent change from baseline LDL-C (g.19224G > A G/G): −25.11 (/0.53) %
Least-Squares adjusted Mean (n/Std error), percent change from baseline LDL-C (g.19259T > C C/C): −26.38 (/1.98) %
Least-Squares adjusted Mean (n/Std error), percent change from baseline LDL-C (g.19259T > C T/C): −25.01 (/0.82) %
Least-Squares adjusted Mean (n/Std error), percent change from baseline LDL-C (g.19259T > C T/T): −25.07 (/0.64) %
Least-Squares adjusted Mean (n/Std error), percent change from baseline LDL-C (g.28650A > G A/A): −24.40 (/0.60) %
Least-Squares adjusted Mean (n/Std error), percent change from baseline LDL-C (g.28650A > G A/G): −26.50 (/0.89) %
Least-Squares adjusted Mean (n/Std error), percent change from baseline LDL-C (g.28650A > G G/G): −27.19 (/2.65) %
mean LDL-C change from baseline (EASE cohort, heterozygous for the minor allele of g.−18C>A (298/1195)): 27.8%
mean LDL-C change from baseline (EASE cohort, homozygous for the common allele of g.−18C>A (n=875/1195)): 24.2%
mean change in LDL-C (EASE cohort, homozygous for the minor allele of g.−18C>A (n=22/1195)): 27.3%
Least-Squares (adjusted) Mean (n,/Stderr), percent change in LDL-C (g.-18C > A C/A): −33.98 (62/4.05) %
Least-Squares (adjusted) Mean (n,/Stderr), percent change in LDL-C (g.-18C > A C/C): −16.85 (177/2.40) %
